Source: patent EP0801570B1, “FORMULATIONS AND METHODS FOR REDUCING SKIN IRRITATION” (COSMEDERM TECHNOLOGIES, priority 1994, dated 1996)
Read-outs that look alike come from different tables or passages of the source.

Key:
[1] = system: skin irritation; assay: Human clinical trials of anti-irritant activity against topical skin irritants; format: in vivo, humans; details: for anti-irritant activity: clinical trials
Method: The objective of the clinical trials was to determine whether and to what extent topical formulations of the calcium cation reduced or prevented skin irritation caused by certain severe skin irritants, including particularly lactic acid and glycolic acid (which are hydroxy acids), capryloyl salicylic acid (a β-hydroxy acid ester) and capsaicin (an isolate from cayenne and paprika known for its skin-irritating properties). The trials were conducted in a double blind, randomized, vehicle-controlled manner. Various formulations of the invention were tested in over 460 people.
(§1) Tests were conducted in multiple panels of from 7 to 12 subjects each. Subjects were instructed not to wear any makeup or facial lotions to the clinic the day of testing. The subjects were instructed to wash their face with Ivory bar soap in the clinic prior to application of test solutions.

[2] = system: lactic acid skin irritation; assay: Lactic acid irritation trial, time zero test (anti-irritant applied simultaneously with the irritant); format: in vivo, humans; details: time zero tests; for inhibition at 250000 µM: Homo sapiens
Text: (§2) The following scaled scores were used for sensory assessment: […]

[3] = system: lactic acid skin irritation; assay: Lactic acid irritation trial, pretreatment test (anti-irritant applied 15 minutes before the irritant); format: in vivo, humans; details: for Percent Inhibition (average inhibition of cumulative irritation): cation salt at 250 mM, lactic acid irritant; for inhibit skin irritation: topical solutions in Elizabeth Arden Visible Difference Refining Toner, various amounts of salt
Text: as §2

[4] = system: lactic acid skin irritation
Method: The majority of the trials were conducted using lactic acid as the skin irritant, and proceeded generally as follows.
as §1
Lactic acid skin-irritant compositions were formulated in an appropriate vehicle prior to application to the skin of the subjects.
Controls were performed by applying corresponding formulation(s) (pretreatment and/or skin-irritant composition) with an equimolar amount of sodium chloride to a contralateral portion of the subject's skin. Typically, the test materials were applied to the face of the subject.
All test solutions (including controls) were applied in a double blind, randomized fashion using the prepared solutions as previously placed in coded vial designated for use on either the right or left side of the face (or other test area). Solutions were typically applied using a cotton swab (six strokes) or sponge applicator to the face and cheek area extending from the midline of the nose over to the center of the cheek and from the cheek bone down to the jaw line. Application was made first to the right side and then to the left.
The following scaled scores were used for sensory assessment:
Symptom scores were cumulated, separately for the cation-treated and control-treated areas, for each individual and also for the panel as a whole.

[5] = cation salt at 250 mM, lactic acid irritant
[6] = representative panels, cation concentration 250 mM, vehicle 10% EtOH
[7] = pretreatment tests, representative panels, cation concentration 250 mM, vehicle VIS DIFFERENCE

Compound	anti-irritant activity [1]	inhibition at 250000 µM ([2]; cation salt at 250 mM, lactic acid irritant, read-out: Percent Inhibition (average inhibition of cumulative irritation)) [%]	inhibition at 250000 µM ([2]; representative panels, cation concentration 250 mM, vehicle 10% EtOH, read-out: Percent Inhibition) [%]	inhibition at 250000 µM ([3]; Homo sapiens, pretreatment tests, representative panels, cation concentration 250 mM, vehicle VIS DIFFERENCE, read-out: Percent Inhibition) [%]	Percent Inhibition (average inhibition of cumulative irritation) [2, 5] [%]	Percent Inhibition [2, 6] [%]	Percent Inhibition (average inhibition of cumulative irritation) ([3]; pretreatment tests) [%]	Percent Inhibition [3, 7] [%]	inhibit skin irritation [3]	suppress stinging, burning, tingling, itching and/or erythema ([1]; applied topically to the skin, irritants lactic acid, glycolic acid, capryloyl salicylic acid and benzoyl peroxide)	Percent Inhibition (cumulative irritation inhibition) ([4]; concentration 31 mM) [%]	Percent Inhibition (cumulative irritation inhibition) ([4]; concentration 62 mM) [%]	Percent Inhibition (cumulative irritation inhibition) ([4]; concentration 125 mM) [%]	Percent Inhibition (cumulative irritation inhibition) ([4]; concentration 250 mM) [%]	Percent Inhibition (cumulative irritation inhibition) ([4]; concentration 500 mM) [%]
O=C(O)[C@H](O)[C@@H](O)[C@H](O)[C@H](O)CO [Calcium gluconate]	particularly active as anti-irritants	40	49	40											
CC(=O)[O-].CC(=O)[O-].[Ca+2] [Calcium acetate]	particularly active as anti-irritants				60	65	40	30	effective to inhibit skin irritation						
[Ca+2] [calcium(II) (Ca^2+)]	significant and reproducible anti-irritant effects									effective					
[Ca+2].[Cl-].[Cl-] [Calcium chloride]	particularly active as anti-irritants				65	61	35	35	effective to inhibit skin irritation						
O=[N+]([O-])[O-].O=[N+]([O-])[O-].[Ca+2] [Calcium nitrate]	particularly active as anti-irritants				90	85	45	44	effective to inhibit skin irritation		26	52	83	82	67
